# Results from patent publication US20170035724A1, “MAMMALIAN SIRT1 ACTIVATOR” (priority 2015, published 2017).
# Legend:
# mammalian SIRT1 [1] = assay: p53 deacetylation in A549 cells treated with corylin and nicotinamide, Western blotting; format: cell-based, human; settings: nicotinamide 1 hour before corylin, then UV, FIG. 6
# Protocol: Nicotinamide is a mammalian SIRT1 inhibitor (Exp Hematol. 2012; 40(4): 342-55), and the compound is used to confirm the foregoing result. After human lung cancer A549 cells were cultured at 37° C. overnight, the cells were treated with a media containing nicotinamide, and then cultured at 37° C. for 1 hour. Corylin in various concentrations was added to the media, and the cells were cultured at 37° C. for 4 hours. After which, the cells were emitted with UV to acetylate p53, and cultured at 37° C. for 4 hours again. Finally, the total protein in the cells were extracted and analyzed using Western blotting.
# wild type yeast cells = assay: Replicative life span of wild type yeast cells (passage number); format: cell-based
# Protocol: (§1) A yeast colony was selected and cultured in a YEPD culture media. When the OD value of the media was at 0.6-0.8, 20 μl of the media was added to a YEPD solid media, and then 20-30 yeast cells were selected using a tetrad dissection microscope manipulation system. The selected yeast cells were cultured at 30° C. for 3-5 hours to divide into first generation yeast cells. Afterwards, the first generation yeast cells were cultured at 30° C. for 3-5 hours to divide into second generation yeast cells. The culturing step was repeated until final generation yeast cells which cannot divide anymore existed. Finally, the yeast cells' passage number was counted according to the total division number.
# sir2-mutant yeast cells = assay: Replicative life span of sir2-mutant yeast cells (passage number); format: cell-based; settings: sir2-mutant yeast cells treated with corylin; untreated 9.8; FIG. 2
# Protocol: as §1
# PNC1 [2] = assay: PNC1 transcription in corylin-treated yeast cells (PCR and real-time PCR); format: cell-based; settings: various treatment periods; increases with treatment period; FIGS. 4A and 4B
# Protocol: After yeast cells were treated with corylin for various periods, total RNA in the treated yeast cells was extracted. Then, the cDNA corresponding to the extracted RNA was formed using reverse transcription. Finally, the cDNA was analyzed using polymerase chain reaction and real-time polymerase chain reaction.
# PNC1 [3] = assay: PNC1 translation (Pnc1 protein) in corylin-treated yeast cells, Western blotting; format: cell-based; settings: 50 μM corylin for 10 hours; compared with calorie restriction for 10 hours as positive control; FIG. 4C
# Protocol: To confirm the foregoing result, after yeast cells were treated with corylin in various concentrations for various periods, total protein therein was extracted and analyzed using Western blotting.
# mammalian SIRT1 [4] = assay: Mammalian SIRT1 expression in human osteosarcoma U2OS cells, Western blotting; format: cell-based; settings: increases with culturing period, FIG. 5A
# Protocol: Human osteosarcoma U2OS cells were seeded and cultured at 37° C. overnight, and then the cells were treated with corylin and cultured at 37° C. again. After various culturing periods, total protein in the treated cells was extracted and analyzed using Western blotting.
# p53 [5] = assay: UV-induced p53 acetylation in human lung cancer A549 cells, Western blotting; format: cell-based; settings: corylin in various concentrations, 4 hours before UV, FIG. 5B
# Protocol: (§2) After human lung cancer A549 cells or human osteosarcoma U2OS cells were cultured at 37° C. overnight, the cells were treated with various substances, and then cultured at 37° C. for 4 hours. After that, the cells were emitted with UV to acetylate p53, and cultured at 37° C. for 4 hours again. Finally, total protein extracted from the cells was analyzed using Western blotting.
# p53 [6] = assay: UV-induced p53 acetylation in human osteosarcoma U2OS cells, Western blotting; format: cell-based; settings: corylin in various concentrations, 4 hours before UV, FIG. 5C
# Protocol: as §2
Molecule,effect on p53 deacetylation caused by corylin (mammalian SIRT1 [1]),effective concentration on replicative life span of a yeast cell (wild type yeast cells; FIG. 3),"preferable effective concentration on replicative life span of a yeast cell (wild type yeast cells; FIG. 3, 'preferably')","passage number (replicative life span) (wild type yeast cells; wild type yeast cells treated with corylin, untreated 26.9, FIG. 2)",passage number (replicative life span) (sir2-mutant yeast cells),PNC1 transcription (PNC1 [2]),Pnc1 expression (PNC1 translation) (PNC1 [3]),mammalian SIRT1 expression (mammalian SIRT1 [4]),acetylation of p53 induced by UV (p53 [5]),acetylation of p53 induced by UV (p53 [6])
"NC(=O)c1cccnc1 [nicotinamide, Nicotinamide]",can inhibit the p53 deacetylation caused by corylin,,,,,,,,,
corylin,,2 to 100 µM,2 to 15 µM,33.2,10.6,can promote the transcription of PNC1,can obviously express Pnc1,can promote the expression of mammalian SIRT1,can repress the acetylation of p53 induced by UV,can repress the acetylation of p53 induced by UV
